Measured values reported in BigSolDB 2.1.

CO[C@H]1/C=C/O[C@@]2(C)Oc3c(C)c(O)c4c(O)c(c(/C=N/N5CCN(C)CC5)c(O)c4c3C2=O)NC(=O)/C(C)=C\C=C\[C@H](C)[C@H](O)[C@@H](C)[C@@H](O)[C@@H](C)[C@H](OC(C)=O)[C@@H]1C
solubility (mole fraction)
Conditions | in ethanol | in ethyl acetate | in eugenol | in isopropanol | in isopropyl myristate | in limonene | in sec-butanol | in transcutol | in triacetin
298.2 K | 0.00011 | 0.00054 | 0.00028 | 0.00073 | 0.0031 | 0.0023 | 0.00048 | 0.00097 | 0.00049
303.2 K | 0.00016 | 0.00074 | 0.00031 | 0.00089 | 0.0038 | 0.0036 | 0.00051 | 0.0013 | 0.00052
308.2 K | 0.00023 | 0.00088 | 0.00039 | – | 0.0043 | 0.0052 | 0.00059 | 0.0025 | 0.00072
313.2 K | 0.00036 | 0.0091 | 0.00043 | 0.0016 | 0.0047 | 0.0085 | 0.00076 | 0.0049 | 0.00073
318.2 K | 0.00053 | 0.013 | 0.00059 | 0.0017 | – | – | – | 0.018 | 0.00088

Conditions | solubility (mole fraction)
in span 80, 298.2 K | 0.00058
in span 80, 303.2 K | 0.00064
in span 80, 308.2 K | 0.00079
in span 80, 313.2 K | 0.00085
in span 80, 318.2 K | 0.00099
